Tested on: APCs in the draining LNs
Experiment: Subcutaneous LPS stimulation: activation markers CD40 and CD86 on APCs in draining LNs
Type: in vivo, mouse
Details: s.c. treatment, LPS challenge on Day 6
Description: In order to assess the ability of lymph node targeted Neg-ButM in suppressing the activation of APCs, the investors tested on a mouse model of subcutaneous lipopolysaccharide (LPS) stimulation and evaluated on the activation marker including CD40 and CD86 on the major APCs in the draining LNs. Mice were injected with either PBS, sodium butyrate (NaBut), NtL-ButM, or Neg-ButM subcutaneously at the abdomen site. On Day 6, Mice were challenged with LPS on the same injection site, and sacrificed the next day for the cellular analysis.

Compound: CCCC(=O)[O-].[Na+] [sodium butyrate]
- suppression of APC activation: neither the NtL-ButM, nor sodium butyrate showed any significant suppression on the APC activations
